This passage reports inhibition results from US9416128B2, “Fused heterocyclic compounds as ion channel modulators” (Gilead Sciences, Inc., priority 2013, dated 2016).

Experiment [1] concerns the target wild-type human cardiac sodium channel, hNaV 1.5 (Late INa) (Homo sapiens, UniProt Q14524). Briefly: Late INa screening assay (whole cell patch clamp, QPatch, Tefluthrin-induced late current). It counts as cell-based. The following applies: HEK293, % inhibition (percent block of late INa) at 1 uM; HEK293 hNaV1.5; 10 μM Tefluthrin; read-out: Nav1.5 Late INa 1 uM. On the procedure:
The cardiac late sodium current (Late INa) and peak sodium current (Peak INa) assays are performed on an automated electrophysiology platform, QPatch 16X or QPatch HT (Sophion Bioscience, Copenhagen, Denmark) using the whole cell patch clamp technique to measure currents through the cell membrane. The assay uses an HEK293 (human embryonic kidney) cell line heterologously expressing the wild-type human cardiac sodium channel, hNaV 1.5, purchased from Millipore (Billerica, Mass.). No beta subunits were coexpressed with the Na channel alpha subunit. Cells are maintained with standard tissue culture procedures and stable channel expression is maintained with 400 μg/mL Geneticin in the culture medium. Experiments are carried out at 23-25° C.
For both the Late INa and Peak INa assays, series resistance compensation is set to 100% and series resistance and whole-cell compensation are performed automatically. Currents are digitized at 25 kHz and low-pass filtered at 5 kHz and stored in the Sophion Bioscience Oracle database (Sophion Bioscience, Copenhagen, Denmark). Analysis is performed using QPatch Assay software and data are compiled in Excel 2010 (Microsoft, Seattle, Wash., U.S.A.).
Compound stocks are routinely made by the Gilead Sample Bank in vials to 10 mM in dimethyl sulfoxide (DMSO). In some cases, when compounds are not soluble in DMSO, they are made in 100% ethanol. Stocks are sonicated as necessary. The extracellular solution for screening Late INa is composed of: 140 mM NaCl, 4 mM KCl, 1.8 mM CaCl2, 1 mM MgCl2, 10 mM HEPES and 10 mM Dextrose with pH adjusted to 7.35 using NaOH. The intracellular solution contains: 105 mM CsF, 20 mM CsCl, 10 NaF, 2 mM EGTA, 10 mM HEPES and 10 mM Dextrose with pH adjusted to 7.35 with CsOH. Compounds are diluted in extracellular solution using a MicroLab Nimbus (Hamilton Robotics, Reno, Nev.) to between 0.3 and 3 μM in glass vials and transferred to glass well plates before robotic addition to the cells. The 0 mM Na extracellular solution (0Na-ECF) used at the end of each experiment for the Late INa and Peak INa assays to measure baseline current contains: 140 Choline-Cl; 4 mM KCl, 1.8 mM CaCl2; 1 mM MgCl2; 10 mM HEPES and 10 mM Dextrose with pH was adjusted to 7.35 with CsOH.
For the Late INa assay, sodium channels are activated every 10 seconds (0.1 Hz) by depolarizing the cell membrane to −20 mV for 250 milliseconds (ms) from a holding potential of −120 mV.
Compounds were tested to determine their activity in blocking the late sodium current. Late INa was generated by adding 10 μM Tefluthrin (pyrethroid) to the extracellular solution. For the purposes of the screening, Late INa is defined as the mean current between 240 ms and 265 ms during the voltage step to −20 mV. After establishing the whole cell recording configuration, Late INa activator is added to each well 4 times over a 15 minute period so that the late component of the Na current reaches a stable value. Compounds were then added (typically at 0.3 or 1 μM), in the presence of the Late INa activator, with 3 additions over the course of 5 minutes. Measurements were made at the end of exposure to the third compound addition and values were normalized to the current level when all Na^+ was removed from the extracellular solution after two additions of 0Na-ECF.
Results are reported as percent block of late INa and results were analyzed by incorporating rundown correction for the Late INa.

For another experiment, the target named is hNaV1.1 (SCN1A) (Homo sapiens, UniProt P35498). Put plainly: Use-dependent inhibition of the CNS NaV1.1 sodium channel. The settings on record: % inhibition, 25 Hz; for inhibition at 1 µM: use-dependent block at 1 uM, read-out: Nav1.1 UDB 25 Hz 1 uM; for inhibition at 10 µM: use-dependent block at 10 uM, read-out: Nav1.1 UDB 25 Hz 10 uM. It is filed as cell-based. On the procedure: HEK-293 cells stably expressing wild-type (WT) hNaV1.1 (SCN1A, NCBI# AB09354) were obtained from Millipore (Cat. # CYL3009) were used to record INa. Cells are maintained with standard tissue culture procedures and stable channel expression is maintained with 400 ug/mL G418 in the culture medium. Unless otherwise noted, all reagents are purchased from Sigma-Aldrich (St Louis, Mo., U.S.A.).
Assays measuring Use-Dependent Block (UDB) of NaV1.2 are performed on an automated electrophysiology platform, QPatch 16X or QPatch HT (Sophion Bioscience, Copenhagen, Denmark), using the whole cell patch clamp technique to measure currents through the cell membrane. Series resistance compensation is set to 100% and series resistance and whole-cell compensation are performed automatically. Currents stored in the Sophion Bioscience Oracle database (Sophion Bioscience, Copenhagen, Denmark). Analysis is performed using QPatch Assay software and data are compiled in Excel 2010 (Microsoft, Seattle, Wash., U.S.A.).
The internal (pipette) solution consists of (in mM) 105 CsF, 10 NaF, 20 CsCl, 2 EGTA, 10 HEPES, 10 Dextrose with a pH of 7.35 and osmolarity of 300 mOsmol/kg. The external (bath) solution contains in (mM): 145 NaCl, 4 KCl, 1.8 CaCl2, 1 MgCl2, 10 dextrose, 10 HEPES, with a pH of 7.35 and osmolarity of 310 mOsmol/kg. Experiments are carried out at 23-25° C.
Compound stocks are routinely made by the Gilead Sample Bank in vials to 10 mM in dimethyl sulfoxide (DMSO). In some cases, when compounds are not soluble in DMSO, they are made in 100% ethanol. Stocks are sonicated as necessary. […]
Cells are allowed to stabilize for 10 min after establishment of the whole-cell configuration before current is measured. The test compound is applied 2 times at 60 second intervals. After the second compound addition, a 200 second wait period was imposed to allow for equilibration.
Leak currents are subtracted by using an online P/4 procedure and all currents are low-pass Bessel filtered at 5 kHz and digitized at […].
Use-dependent block of NaV1.2 peak current is measured during pulse number 20 of a voltage pulse train (0 mV, 20 ms, 20 pulses, 25 Hz) from a holding potential of −120 mV. Currents are normalized to the peak current recorded in response to the first pulse in each frequency train. The voltage protocol for UDB was performed in the absence and presence of compound and percentage inhibition was calculated with respect to the compound free condition. Results are presented as mean percentage inhibition and data analysis is performed using QPatch Assay Software 4.0, and Excel 2002 (Microsoft, Seattle, Wash., U.S.A.).

Chain of wild-type human cardiac sodium channel, hNaV 1.5 (Late INa) (Q14524 whole entry): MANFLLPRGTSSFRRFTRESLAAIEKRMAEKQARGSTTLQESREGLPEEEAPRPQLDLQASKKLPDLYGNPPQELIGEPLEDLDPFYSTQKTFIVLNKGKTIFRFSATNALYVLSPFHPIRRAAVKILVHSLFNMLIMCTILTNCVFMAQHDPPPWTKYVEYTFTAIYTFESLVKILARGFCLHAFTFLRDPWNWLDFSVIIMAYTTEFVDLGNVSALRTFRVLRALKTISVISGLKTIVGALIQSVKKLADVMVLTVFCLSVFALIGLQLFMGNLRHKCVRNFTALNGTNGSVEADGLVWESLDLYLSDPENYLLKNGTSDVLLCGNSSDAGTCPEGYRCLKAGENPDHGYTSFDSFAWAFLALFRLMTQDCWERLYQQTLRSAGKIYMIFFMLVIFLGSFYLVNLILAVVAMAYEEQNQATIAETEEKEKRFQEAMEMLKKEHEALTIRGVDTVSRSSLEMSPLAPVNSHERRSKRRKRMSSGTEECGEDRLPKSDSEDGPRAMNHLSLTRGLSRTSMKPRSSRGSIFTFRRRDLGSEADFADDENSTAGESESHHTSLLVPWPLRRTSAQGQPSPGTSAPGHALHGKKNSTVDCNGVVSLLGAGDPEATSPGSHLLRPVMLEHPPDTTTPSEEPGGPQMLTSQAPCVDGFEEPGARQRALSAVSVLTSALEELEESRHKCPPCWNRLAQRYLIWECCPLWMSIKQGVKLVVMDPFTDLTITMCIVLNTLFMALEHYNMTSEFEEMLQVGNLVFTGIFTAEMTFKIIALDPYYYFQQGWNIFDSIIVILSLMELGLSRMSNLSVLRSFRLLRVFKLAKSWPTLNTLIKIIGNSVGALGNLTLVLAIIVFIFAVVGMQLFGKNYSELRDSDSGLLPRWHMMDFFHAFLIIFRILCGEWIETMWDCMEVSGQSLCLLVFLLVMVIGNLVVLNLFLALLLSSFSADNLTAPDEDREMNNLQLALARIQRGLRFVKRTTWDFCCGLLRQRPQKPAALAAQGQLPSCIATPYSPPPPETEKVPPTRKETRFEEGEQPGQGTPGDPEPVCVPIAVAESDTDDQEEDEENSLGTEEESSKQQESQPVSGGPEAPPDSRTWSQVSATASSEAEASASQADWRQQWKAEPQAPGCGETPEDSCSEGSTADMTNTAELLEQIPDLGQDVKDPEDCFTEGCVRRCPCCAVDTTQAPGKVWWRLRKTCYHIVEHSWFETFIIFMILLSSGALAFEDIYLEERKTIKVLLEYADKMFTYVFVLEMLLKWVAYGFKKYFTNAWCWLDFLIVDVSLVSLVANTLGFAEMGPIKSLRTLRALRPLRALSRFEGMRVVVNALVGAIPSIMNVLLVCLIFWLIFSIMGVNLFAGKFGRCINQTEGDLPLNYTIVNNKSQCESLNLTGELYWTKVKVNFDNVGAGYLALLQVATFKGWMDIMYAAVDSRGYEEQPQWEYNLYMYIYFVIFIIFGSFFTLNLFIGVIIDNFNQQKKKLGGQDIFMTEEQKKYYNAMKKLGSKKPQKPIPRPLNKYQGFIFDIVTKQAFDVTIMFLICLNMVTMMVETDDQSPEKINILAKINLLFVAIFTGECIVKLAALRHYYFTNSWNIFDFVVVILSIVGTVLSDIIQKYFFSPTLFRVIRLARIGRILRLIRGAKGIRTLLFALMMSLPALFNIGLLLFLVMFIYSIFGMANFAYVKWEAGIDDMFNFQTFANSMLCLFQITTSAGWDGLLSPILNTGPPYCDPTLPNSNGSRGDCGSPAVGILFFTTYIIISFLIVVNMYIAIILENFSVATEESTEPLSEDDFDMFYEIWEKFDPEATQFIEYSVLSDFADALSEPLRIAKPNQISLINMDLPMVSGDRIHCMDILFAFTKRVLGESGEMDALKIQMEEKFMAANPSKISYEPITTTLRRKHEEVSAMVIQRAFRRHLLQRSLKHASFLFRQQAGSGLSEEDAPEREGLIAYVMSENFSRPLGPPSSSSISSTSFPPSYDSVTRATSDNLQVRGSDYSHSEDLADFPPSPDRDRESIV

Turning to `O=C1Oc2ccc(-c3ccc(OC(F)(F)F)cc3)cc2CN1Cc1ncccn1` [Example 3, 3-(pyrimidin-2-ylmethyl)-6-(4-(trifluoromethoxy)phenyl)-3,4-dihydro-2H-benzo[e][1,3]oxazin-2-one], in experiment [1], the inhibition at 1 µM was determined as 51.8%. For the same molecule, on hNaV1.1 (SCN1A), the inhibition at 1 µM worked out at 42.6% and the inhibition at 10 µM stood at 91.6%.

Consider `O=C1Oc2ccc(-c3ccc(C(F)(F)F)cc3)cc2CN1Cc1ncccn1` [Example 4, 3-(pyrimidin-2-ylmethyl)-6-(4-(trifluoromethyl)phenyl)-3,4-dihydro-2H-benzo[e][1,3]oxazin-2-one], for which the inhibition at 1 µM in experiment [1] was determined as 53.9%; on hNaV1.1 (SCN1A) it was 49.9%. At hNaV1.1 (SCN1A), the inhibition at 10 µM turned out to be 76.5%.

For the molecule `Cc1nccc(CN2Cc3cc(-c4ccc(OC(F)(F)F)cc4)ccc3OC2=O)n1` [Example 15, 3-((2-methylpyrimidin-4-yl)methyl)-6-(4-(trifluoromethoxy)phenyl)-3,4-dihydro-2H-benzo[e][1,3]oxazin-2-one], the inhibition at 1 µM in experiment [1] amounted to 30%.

Take `CC1c2cc(-c3ccc(C(F)(F)F)cc3)ccc2OC(=O)N1Cc1ncccn1` (stereo not drawn) [Example 49, 4-methyl-3-(pyrimidin-2-ylmethyl)-6-(4-(trifluoromethyl)phenyl)-3,4-dihydro-2H-benzo[e][1,3]oxazin-2-one]: the inhibition at 1 µM in experiment [1] was found to be 41.5%; at hNaV1.1 (SCN1A), 21.5%. Also, the inhibition at 10 µM on hNaV1.1 (SCN1A) is 82.4%.

For the molecule `CC1c2cc(-c3cccc(Oc4ccccc4)c3)ccc2OC(=O)N1Cc1ncccn1` (stereo not drawn) [Example 51, 4-methyl-6-(3-phenoxyphenyl)-3-(pyrimidin-2-ylmethyl)-3,4-dihydro-2H-benzo[e][1,3]oxazin-2-one], in experiment [1], the inhibition at 1 µM is 41.6%.

Consider `O=C1Oc2cc3c(cc2CN1Cc1ncccn1)-c1ccc(OC(F)(F)F)cc1C3` [Example 60, 3-(pyrimidin-2-ylmethyl)-8-(trifluoromethoxy)-3,4-dihydrofluoreno[3,2-e][1,3]oxazin-2(10H)-one], for which the inhibition at 1 µM in experiment [1] was found to be 11.2%.
